Assay results reported in US20080188506A1, “SPIROINDOLINONE DERIVATIVES” (priority 2007, published 2008).

Molecular target: interaction between p53 and MDM2 proteins (recombinant GST-tagged MDM2 / p53 peptide) (Homo sapiens, UniProt Q00987)
Assay: HTRF assay of inhibition of the p53-MDM2 interaction (GST-MDM2 / biotinylated p53 peptide)
Type: binding
Settings: 0.2% BSA, 37° C. 1 h
Experimental: The ability of the compounds to inhibit the interaction between p53 and MDM2 proteins was measured by an HTRF (homogeneous time-resolved fluorescence) assay in which recombinant GST-tagged MDM2 binds to a peptide that resembles the MDM2-interacting region of p53 (Lane et al.). Binding of GST-MDM2 protein and p53-peptide (biotinylated on its N-terminal end) is registered by the FRET (fluorescence resonance energy transfer) between Europium (Eu)-labeled anti-GST antibody and streptavidin-conjugated Allophycocyanin (APC).
Test is performed in black flat-bottom 384-well plates (Costar) in a total volume of […] containing:90 nM biotinylate peptide, 160 ng/ml GST-MDM2, 20 nM streptavidin-APC (PerkinElmerWallac), 2 nM Eu-labeled anti-GST-antibody (PerkinElmerWallac), 0.2% bovine serum albumin (BSA), 1 mM dithiothreitol (DTT) and 20 mM […] (TBS) buffer as follows: Add 10 uL of GST-MDM2 (640 ng/ml working solution) in reaction buffer to each well. Add 10 uL diluted compounds (1:5 dilution in reaction buffer) to each well, mix by shaking. Add 20 uL biotinylated p53 peptide (180 nM working solution) in reaction buffer to each well and mix on shaker. Incubate at 37° C. for 1 h. Add 20 uL streptavidin-APC and Eu-anti-GST antibody mixture (6 nM Eu-anti-GST and 60 nM streptavidin-APC working solution) in TBS buffer with 0.2% BSA, shake at room temperature for 30 minutes and read using a TRF-capable plate reader at 665 and 615 nm (Victor 5, Perkin ElmerWallac). If not specified, the reagents were purchased from Sigma Chemical Co.

Sequence of interaction between p53 and MDM2 proteins (recombinant GST-tagged MDM2 / p53 peptide) (Q00987 whole entry): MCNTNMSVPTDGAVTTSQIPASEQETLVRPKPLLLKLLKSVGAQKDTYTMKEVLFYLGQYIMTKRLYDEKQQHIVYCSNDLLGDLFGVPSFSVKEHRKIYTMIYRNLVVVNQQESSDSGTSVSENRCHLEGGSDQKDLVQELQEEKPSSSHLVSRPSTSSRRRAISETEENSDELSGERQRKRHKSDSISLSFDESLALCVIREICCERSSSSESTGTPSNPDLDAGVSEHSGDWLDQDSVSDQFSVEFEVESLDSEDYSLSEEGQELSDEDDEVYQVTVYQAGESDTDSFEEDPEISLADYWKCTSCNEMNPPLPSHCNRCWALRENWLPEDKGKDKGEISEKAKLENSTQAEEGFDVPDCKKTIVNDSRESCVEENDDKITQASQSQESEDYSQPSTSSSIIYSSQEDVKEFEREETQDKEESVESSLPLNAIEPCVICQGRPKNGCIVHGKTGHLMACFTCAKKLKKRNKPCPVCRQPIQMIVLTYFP

IC50 | Compound
5.21 µM | COc1cccc([C@H]2NCC[C@@H](c3cccc(Cl)c3)[C@]23C(=O)Nc2cc(Cl)ccc23)c1 (racemic) [Example 8c, racemic (2′R, 3R, 4′S)-6-chloro-4′-(3-chlorophenyl)-2′-(3-methoxyphenyl) spiro[3H-indole-3,3′-piperidine]-2(1H)-one]
6.95 µM | O=C1Nc2cc(Cl)ccc2[C@]12[C@@H](c1ccccc1C(F)(F)F)NCC[C@H]2c1cccc(Cl)c1 (racemic) [Example 11c]
2.31 µM | COc1ccc(F)cc1[C@H]1NCC[C@@H](c2cccc(Cl)c2)[C@]12C(=O)Nc1cc(Cl)ccc12 (racemic) [Example 16c, racemic (2′R, 3R, 4′S)-6-chloro-4′-(3-chlorophenyl)-2′-(5-fluoro-2-methoxyphenyl) spiro[3H-indole-3,3′-piperidine]-2(1H)-one]
1.03 µM | C=C(CC(C)C)[C@H]1n2cnnc2C[C@@H](c2cccc(Cl)c2)[C@]12C(=O)Nc1cc(Cl)ccc12 (racemic) [Example 44h]
